Laboratory results as given in ChEMBL document CHEMBL1201862, “PubChem BioAssay data set” (2004).
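Where inhibition never reached the appropriate level, the endpoint shown equals the highest concentration tested. Otherwise, values were interpolated linearly from a five-concentration, 48-hour dose response in 96-well plates. GI50 is the concentration that inhibits growth by half.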 The source made the active and inactive calls. Rule as the data show it: active = GI50 up to about 1.1 µM and inactive = higher.

How the values were obtained:
Assay in all cases: growth of human tumour cells (NCI), 48 h
SK-MEL-5 = system: SK-MEL-5
Malme-3M = system: Malme-3M
SN12C = system: SN12C
OVCAR-3 = system: OVCAR-3
K562 = system: K562
NCI-H460 = system: NCI-H460
HOP-62 = system: HOP-62
NCI-H23 = system: NCI-H23
HCT-15 = system: HCT-15
PC-3 = system: PC-3
EKVX = system: EKVX
COLO 205 = system: COLO 205
SNB-19 = system: SNB-19
RXF 393 = system: RXF 393
MDA-MB-435 = system: MDA-MB-435
SK-MEL-28 = system: SK-MEL-28
HCT-116 = system: HCT-116
TK-10 = system: TK-10
BT-549 = system: BT-549

Compound	GI50 (SK-MEL-5)	GI50 (Malme-3M)	GI50 (SN12C)	GI50 (OVCAR-3)	GI50 (K562)	GI50 (NCI-H460)	GI50 (HOP-62)	GI50 (NCI-H23)	GI50 (HCT-15)	GI50 (PC-3)	GI50 (EKVX)	GI50 (COLO 205)	GI50 (SNB-19)	GI50 (RXF 393)	GI50 (MDA-MB-435)	GI50 (SK-MEL-28)	GI50 (HCT-116)	GI50 (TK-10)	GI50 (BT-549)
CC1(C)N=c2c(ncn2N)=C(C(N)=O)N1	> 100 µM (inactive)	> 100 µM (inactive)	> 100 µM (inactive)	> 100 µM (inactive)	> 100 µM (inactive)	> 100 µM (inactive)	> 100 µM (inactive)	> 100 µM (inactive)	> 100 µM	> 100 µM (inactive)	> 100 µM (inactive)	> 100 µM (inactive)	> 100 µM (inactive)	> 100 µM (inactive)	> 100 µM (inactive)	> 100 µM (inactive)	> 100 µM (inactive)	> 100 µM (inactive)	
N#C/C(C(=O)Nc1ccccc1)=C(/N)N1CCCCC1	> 100 µM (inactive)		> 100 µM (inactive)	> 100 µM (inactive)	> 100 µM (inactive)	> 100 µM (inactive)	> 100 µM (inactive)	> 100 µM (inactive)	> 100 µM	> 100 µM (inactive)	98.4 µM (inactive)	> 100 µM (inactive)	> 100 µM (inactive)		84.9 µM (inactive)	> 100 µM (inactive)	> 100 µM (inactive)		> 100 µM (inactive)
COc1ccc(-n2cnn3c(=O)c4cn[nH]c4nc23)cc1	> 10 µM (inactive)	> 10 µM (inactive)	> 10 µM (inactive)	> 10 µM (inactive)	> 10 µM (inactive)	> 10 µM (inactive)		> 10 µM (inactive)		> 10 µM (inactive)	> 10 µM (inactive)		> 10 µM (inactive)		> 10 µM (inactive)		> 10 µM (inactive)	> 10 µM (inactive)	> 10 µM (inactive)
O=c1c2ccccc2n2c(-c3ccc(O)cc3)nnc2n1-c1ccccc1	18.5 µM (inactive)	21.5 µM (inactive)	17.1 µM (inactive)	18.2 µM (inactive)	13.4 µM (inactive)	17.8 µM (inactive)	20.4 µM (inactive)	20.3 µM (inactive)	23.1 µM	17.9 µM (inactive)	17 µM (inactive)	77.6 µM (inactive)	20.4 µM (inactive)	20.5 µM (inactive)	18.5 µM (inactive)	24.3 µM (inactive)	20.9 µM (inactive)	26.5 µM (inactive)	
O=C1/C(=C/c2ccccc2O)N=C(c2ccccc2)N1c1nc2ccccc2s1	7.57 µM (inactive)			7.43 µM (inactive)	7.85 µM (inactive)	11.2 µM (inactive)	18.6 µM (inactive)	11.1 µM (inactive)	6.11 µM	15.7 µM (inactive)	24.5 µM (inactive)			34.3 µM (inactive)	3.1 µM (inactive)	21.3 µM (inactive)	14.3 µM (inactive)	23.8 µM (inactive)	
O=C(NNc1nc(-c2ccccc2)cs1)C(F)(F)F	35.3 µM (inactive)	53.7 µM (inactive)	75.7 µM (inactive)		25 µM (inactive)	63.5 µM (inactive)	33.2 µM (inactive)	34 µM (inactive)	57.3 µM	37.8 µM (inactive)	98.9 µM (inactive)	35.8 µM (inactive)	63.8 µM (inactive)	75 µM (inactive)	34 µM (inactive)	25.8 µM (inactive)	47.3 µM (inactive)		
CC1=C(C(=O)Nc2ccc([N+](=O)[O-])cc2)C(c2ccccc2F)C(C(=O)Nc2ccc([N+](=O)[O-])cc2)=C(C)N1	13.9 µM (inactive)	13.7 µM (inactive)	8.18 µM (inactive)	8.32 µM (inactive)	6.61 µM (inactive)	13.6 µM (inactive)	15 µM (inactive)	11.2 µM (inactive)			8.81 µM (inactive)	13 µM (inactive)	21.1 µM (inactive)	6.75 µM (inactive)		20.7 µM (inactive)	5.13 µM (inactive)	23.7 µM (inactive)	
COc1ccc(O)cc1 [MEQUINOL]	42.8 µM (inactive)	77.6 µM (inactive)	> 100 µM (inactive)	44.8 µM (inactive)	68.1 µM (inactive)	97.1 µM (inactive)	40.8 µM (inactive)	> 100 µM (inactive)	24.5 µM		> 100 µM (inactive)	> 100 µM (inactive)	> 100 µM (inactive)	> 100 µM (inactive)		> 100 µM (inactive)	> 100 µM (inactive)	> 100 µM (inactive)	
CCCCc1ccc(N2C(=O)c3cc(C)cnc3S2(=O)=O)cc1	> 100 µM (inactive)	> 100 µM (inactive)	> 100 µM (inactive)	> 100 µM (inactive)	> 100 µM (inactive)	> 100 µM (inactive)	85.7 µM (inactive)	> 100 µM (inactive)	> 100 µM	> 100 µM (inactive)	> 100 µM (inactive)	> 100 µM (inactive)	> 100 µM (inactive)	49.2 µM (inactive)	> 100 µM (inactive)	> 100 µM (inactive)	> 100 µM (inactive)		
